Measurements from publication PMC7242566, “The Three Lipocalins of Egg-White: Only Ex-FABP Inhibits Siderophore-Dependent Iron Sequestration by Salmonella Enteritidis” (Frontiers in Microbiology, 2020).
Values joined by “and” are separate entries in the source; they are usually repeats but may differ in a detail not shown here. Equal values may be shown once. Read-outs that look alike come from different tables or passages of the source.

Legend:
LCN2 [1] = target: T1, LCN2 (Homo sapiens, UniProt P80188); test: Isothermal titration calorimetry, siderophore binding to LCN2; settings: ITC; for n (binding stoichiometry) / ΔH (enthalpy) / ΔS (entropy) / Kd: TBS pH 7.4, 30°C; for Kd: 5 μM lipocalin
T1 construct: made in house; host or cells: E. coli K-12 BW25113 ΔentB::kan (JW0587) (λDE3), pET21a
Procedure: (§1) Experiments were carried out with a GE Healthcare Microcal VP-ITC microcalorimeter according to the manufacturer’s guidelines (Operating Instructions 28-9639-79 AA). The device consisted of a motorized injection syringe, in which the ligand was loaded, with two adiabatic cells set at 30 °C. The left cell was filled with the reference (TBS with 1.3% DMSO), whereas the right cell was filled with 5 μM lipocalin protein dissolved in the same buffer. […] Samples were degassed and pre-equilibrated at the desired temperature using a GE MicroCal ThermoVac degassing station before loading into the syringe, sample cell and reference cell.

Ex-FABP [2] = target: T2, Ex-FABP (Gallus gallus, UniProt P21760); settings: TQF, ref Correnti et al., 2011, cited from earlier work; for Kd: pH 7.4
T2 construct: made in house; host or cells: E. coli K-12 BW25113 ΔentB::kan (JW0587) (λDE3), pET21a, periplasmic secretion

LCN2 [3] = target: T1, LCN2; parameters: method as in Li et al., 2015; settings: ITC, earlier report; ref Li et al., 2015; cited from earlier work
Ex-FABP [4] = target: T2, Ex-FABP; test: biochemical; type: binding, chicken
Procedure: as §1

LCN2 [5] = target: T1, LCN2; settings: cited from earlier work; for Kd: TQF
Cal-γ = test: Isothermal titration calorimetry, siderophore binding to Cal-γ; parameters: species or system chicken; settings: ITC, TBS pH 7.4, 30°C, 5 μM lipocalin
Procedure: as §1
(§2) FIGURE 2 Interactions between lipocalins and SE siderophores. […] Data for LCN2, Fe-Ent are shown in the Supplementary Figure S2.

α-1-ovoglycoprotein = test: Isothermal titration calorimetry, siderophore binding to α-1-ovoglycoprotein; parameters: species or system chicken; settings: ITC, TBS pH 7.4, 30°C, 5 μM recombinant non-glycosylated lipocalin
Procedure: as §1, §2

[6] = parameters: method as in Chart and Rowe, 1993; settings: ref Chart and Rowe, 1993; cited from earlier work

T1 sequence (P80188 with tags, fused parts or gaps): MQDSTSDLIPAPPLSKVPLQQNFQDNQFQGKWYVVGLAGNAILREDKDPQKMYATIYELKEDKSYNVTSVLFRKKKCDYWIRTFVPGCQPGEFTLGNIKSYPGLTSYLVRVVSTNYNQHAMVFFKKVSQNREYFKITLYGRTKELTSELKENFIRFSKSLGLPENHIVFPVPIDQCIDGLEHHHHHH
T2 sequence (P21760 21-178): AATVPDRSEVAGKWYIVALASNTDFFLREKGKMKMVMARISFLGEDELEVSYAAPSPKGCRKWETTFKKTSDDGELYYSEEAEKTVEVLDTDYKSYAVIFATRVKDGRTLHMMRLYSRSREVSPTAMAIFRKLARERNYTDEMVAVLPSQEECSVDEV

For `O=C(N[C@H]1COC(=O)[C@@H](NC(=O)c2cccc([O-])c2[O-])COC(=O)[C@@H](NC(=O)c2cccc([O-])c2[O-])COC1=O)c1cccc([O-])c1[O-].[Fe+3]` [Fe^3+-Ent], the “fold higher affinity for Fe^3+-Ent than apoEnt” value (from here on “fold higher affinity”) (LCN2 [1]) was 4.9 fold, the “n (binding stoichiometry)” value (LCN2 [1]) was 0.863 and the “ΔH (enthalpy)” value (LCN2 [1]) was -26.2 kcal/mol. For the same compound, the “ΔS (entropy)” value (LCN2 [1]) was −50.2 cal/mol, K, the Kd (LCN2 [1]; read-out: Kd) was 11.8 ± 8.8 nM and the Kd (Ex-FABP [2]; read-out: Kd) was 0.22 ± 0.06 nM. The “fold higher affinity” value (Ex-FABP [2]) was 2.3 fold, the Kd (LCN2 [3]) was 240 nM and the “fold higher affinity” value (Ex-FABP [4]; ITC) was 16 fold. For the same compound, the “n (binding stoichiometry)” value (Ex-FABP [4]; ITC, TBS pH 7.4, 30°C) was 0.672, the “ΔH (enthalpy)” value (Ex-FABP [4]; ITC, TBS pH 7.4, 30°C) was -19.4 kcal/mol and the “ΔS (entropy)” value (Ex-FABP [4]; ITC, TBS pH 7.4, 30°C) was −26.1 cal/mol, K. The Kd (Ex-FABP [4]; ITC, TBS pH 7.4, 30°C, 5 μM lipocalin, read-out: Kd) was 5.3 ± 3.8 nM, the Kd (LCN2 [5]; ref Fischbach et al., 2006) was 0.43 nM and the Kd (LCN2 [5]; ref Goetz et al., 2002) was 0.41 nM. For the same compound, the “fold higher affinity” value (LCN2 [5]; ref Abergel et al., 2006) was 8.7 fold.

With `O=C(N[C@H]1COC(=O)[C@@H](NC(=O)c2cccc(O)c2O)COC(=O)[C@@H](NC(=O)c2cccc(O)c2O)COC1=O)c1cccc(O)c1O` [apo-Ent, enterobactin] the “n (binding stoichiometry)” value (LCN2 [1]) was 0.872, the “ΔH (enthalpy)” value (LCN2 [1]) was -27.8 kcal/mol and the “ΔS (entropy)” value (LCN2 [1]) was −58.9 cal/mol, K. For the same compound, the Kd (LCN2 [1]; Kd) was 58 nM and 58.4 nM, the Kd (Ex-FABP [2]; read-out: Kd) was 0.5 ± 0.15 nM and the Kd (Cal-γ) was “Under threshold”. For the same compound, the Kd (Cal-γ; listed as apoEnt) was “neither Cal-γ nor α-1-ovoglycoprotein bind”, the Kd (Cal-γ; listed as enterobactin) was “No interactions could be measured” and the Kd (α-1-ovoglycoprotein) was “Under threshold”. The Kd (α-1-ovoglycoprotein; listed as apoEnt) was “neither Cal-γ nor α-1-ovoglycoprotein bind”, the Kd (α-1-ovoglycoprotein; listed as enterobactin) was “No interactions could be measured” and the Kd (Ex-FABP [4]) was 86.2 ± 14.6 nM. For the same compound, the “n (binding stoichiometry)” value (Ex-FABP [4]; ITC, TBS pH 7.4, 30°C) was 0.617, the “ΔH (enthalpy)” value (Ex-FABP [4]; ITC, TBS pH 7.4, 30°C) was -28.3 kcal/mol and the “ΔS (entropy)” value (Ex-FABP [4]; ITC, TBS pH 7.4, 30°C) was −60.9 cal/mol, K. For the same compound, the “binding/affinity constant for Fe^3+ (ferric ion)” value [6] was 10^52 M^−1 and the Kd (LCN2 [5]; ref Abergel et al., 2006) was 3.57 nM.

For salmochelin [apo-Sal (or DGE)], the Kd (LCN2 [1]) is given as “No binding was observed”, the Kd (Ex-FABP [2]) is given as “Under threshold” and the Kd (Cal-γ) is given as “Under threshold”. For the same compound, the Kd (Cal-γ; listed as apoDGE) was “neither Cal-γ nor α-1-ovoglycoprotein bind”, the Kd (Cal-γ; listed as salmochelin) was “No interactions could be measured” and the Kd (α-1-ovoglycoprotein) was “Under threshold”. For the same compound, the Kd (α-1-ovoglycoprotein; listed as apoDGE) was “neither Cal-γ nor α-1-ovoglycoprotein bind”, the Kd (α-1-ovoglycoprotein; listed as salmochelin) was “No interactions could be measured” and the Kd (Ex-FABP [4]; ITC, TBS pH 7.4, 30°C, 5 μM lipocalin) was “No interactions could be measured”. For the same compound, the Kd (Ex-FABP [4]; ITC, TBS pH 7.4, 30°C, 5 μM lipocalin, listed as apoDGE) was “failed to interact”.
